Source: US20260285866A1, “MODULATORS OF TRPML, THEIR COMPOSITIONS AND METHODS OF USE” (Caraway Therapeutics, Inc., priority 2024, published 2026)

How the values were obtained:
TRPMLs = conditions: high concentrations needed; background statement; cited from earlier work
Human TRPML2 = molecular target: T1, Human TRPML2 (Homo sapiens, UniProt Q8IZK6); assay: Fluorescent TRPML2 assay (as for TRPML1); format: cell-based; conditions: fluorescent calcium assay as for TRPML1, TRPML2 subtype
T1 construct: expressed in transfected cells
T1 sequence (Q8IZK6 1-566): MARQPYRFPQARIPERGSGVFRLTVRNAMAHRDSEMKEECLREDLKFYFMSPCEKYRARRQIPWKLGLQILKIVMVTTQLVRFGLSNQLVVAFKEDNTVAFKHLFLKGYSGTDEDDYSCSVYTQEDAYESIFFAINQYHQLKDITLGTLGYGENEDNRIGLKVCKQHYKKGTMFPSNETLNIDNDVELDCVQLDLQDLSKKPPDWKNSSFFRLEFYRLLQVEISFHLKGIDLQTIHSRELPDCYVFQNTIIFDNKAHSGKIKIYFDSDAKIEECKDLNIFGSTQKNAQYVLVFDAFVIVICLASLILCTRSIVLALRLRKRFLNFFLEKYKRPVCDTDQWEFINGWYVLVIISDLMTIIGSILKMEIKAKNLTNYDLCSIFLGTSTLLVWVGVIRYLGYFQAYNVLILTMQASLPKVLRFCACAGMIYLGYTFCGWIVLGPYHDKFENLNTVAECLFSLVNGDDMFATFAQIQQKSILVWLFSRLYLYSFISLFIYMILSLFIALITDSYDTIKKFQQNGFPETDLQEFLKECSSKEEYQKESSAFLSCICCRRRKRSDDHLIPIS
Description: HEK-293 Trex cells were stably transfected with a construct consisting of the human coding sequence for TRPML1 cloned into the tet-inducible plasmid pCDNA5 T/O. Mutations were introduced into the TRPML1 sequence to facilitate expression on the cell surface (Silvia Vergarajauregui, Rosa Puertollano Traffic. 2006 March; 7(3): 337-353). Briefly, the cells are cultured in 150 mm round tissue culture dishes containing 20 mL of media. The day before the assay the cells are rinsed with DPBS-Ca-Mg and then treated briefly with Trypsin-EDTA. The Trypsin-EDTA is diluted with growth media, and cells are counted. 38×10^6 cells are re-plated into 150 mm round tissue culture dishes in media containing 0.5 μg/mL doxycycline to induce expression of hTRPML1.
The day of the experiment cells are lifted from the plates as above and collected by centrifugation. The cells are then suspended in dye loading buffer consisting of Ringer's solution supplemented with 0.1% Pluronic Acid and 1 micromolar Fluo4-AM dye. Cells are loaded for ~60 minutes in the dark with occasional mixing. The cells are collected by centrifugation, the loading media aspirated, and the cells resuspended in 25 mL Ringer's solution and incubated ~60 minutes in the dark. The cells are again collected by centrifugation, rinsed in Ringer's Solution and resuspended to 0.2×10^6 cells/mL in modified Ringer's solution containing 10 mM calcium.
Compounds are dissolved to a concentration of 10 millimolar with DMSO. Compound plates are created by dispensing compounds into 384 well black wall clear bottom plates (Greiner 781091). Positive and negative controls are included on each plate. Typically, different amounts of each compound are tested ranging from 100 nanoMoles (20 micromolar final concentration) decreasing in half-log steps to 31 picoMoles (6 nanomolar final concentration). Each concentration is typically tested in triplicate.
50 microliters of dye-loaded cells are dispensed into each well of the compound assay plate created above. The fluorescence in each well is then determined with an excitation wavelength of 480 nm and an emission wavelength of 540 nm using either a Molecular Devices SpectraMax multimode plate reader or a Hamamatsu FDSS/uCell plate imager.
The resulting fluorescence for each well is exported as an ascii file and loaded into our LIMS for analysis. The percent activity of each compound at each concentration is determined by comparison to the positive and negative control wells included in each plate.
Assays for TRPML2 and TRPML3 were performed as above for TRPML1, by substituting the appropriate TRPML2 or TRPML3 subtype for the TRPML1.
EC50 values were calculated using a non-linear regression of Prism. In the table, “A” indicates an EC50 of less than 100 nM, “B” indicates an EC50 range from 100 nM to 500 nM: “C” indicates an EC50 range from 500 nM to 2 μM; and “D” indicates an EC50 greater than 2 μM.

Human TRPML3 = molecular target: T2, Human TRPML3 (Homo sapiens, UniProt Q8TDD5); assay: Fluorescent TRPML3 assay (as for TRPML1); format: cell-based; conditions: fluorescent calcium assay as for TRPML1, TRPML3 subtype
T2 construct: expressed in transfected cells
T2 sequence (Q8TDD5 1-553): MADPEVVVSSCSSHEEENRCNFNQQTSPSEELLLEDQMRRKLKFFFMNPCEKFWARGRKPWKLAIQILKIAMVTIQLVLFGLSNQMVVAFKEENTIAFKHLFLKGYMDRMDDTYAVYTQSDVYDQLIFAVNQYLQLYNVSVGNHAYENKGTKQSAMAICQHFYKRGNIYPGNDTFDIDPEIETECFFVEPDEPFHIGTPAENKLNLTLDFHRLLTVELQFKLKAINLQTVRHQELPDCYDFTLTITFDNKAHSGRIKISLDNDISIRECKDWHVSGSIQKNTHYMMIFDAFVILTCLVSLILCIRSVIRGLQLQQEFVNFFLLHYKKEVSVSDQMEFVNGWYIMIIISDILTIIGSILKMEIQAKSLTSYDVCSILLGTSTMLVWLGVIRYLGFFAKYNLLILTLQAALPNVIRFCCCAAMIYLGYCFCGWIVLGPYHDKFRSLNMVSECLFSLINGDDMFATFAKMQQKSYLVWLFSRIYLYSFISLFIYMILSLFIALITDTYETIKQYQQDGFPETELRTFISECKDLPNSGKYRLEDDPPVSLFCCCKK
How it was run: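 Tet-inducible HEK-293 Trex cells expressing human TRPML2 or TRPML3, induced overnight with 0.5 μg/mL doxycycline, loaded with 1 μM Fluo4-AM and suspended in Ringer's solution with 10 mM calcium. Compounds tested in triplicate from 20 μM to 6 nM final in half-log steps; fluorescence at 480/540 nm. EC50 by non-linear regression, binned A–D.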

Human TRPML1 = Human TRPML1 (Homo sapiens, UniProt Q9GZU1, L15A/L16A/L577A/L578A); assay: Fluorescent TRPML1 assay (Fluo4-AM, HEK-293 Trex cells expressing hTRPML1); format: cell-based; conditions: fluorescent calcium assay, doxycycline-induced hTRPML1
Human TRPML1, sequence (Q9GZU1 whole entry L15A/L16A/L577A/L578A): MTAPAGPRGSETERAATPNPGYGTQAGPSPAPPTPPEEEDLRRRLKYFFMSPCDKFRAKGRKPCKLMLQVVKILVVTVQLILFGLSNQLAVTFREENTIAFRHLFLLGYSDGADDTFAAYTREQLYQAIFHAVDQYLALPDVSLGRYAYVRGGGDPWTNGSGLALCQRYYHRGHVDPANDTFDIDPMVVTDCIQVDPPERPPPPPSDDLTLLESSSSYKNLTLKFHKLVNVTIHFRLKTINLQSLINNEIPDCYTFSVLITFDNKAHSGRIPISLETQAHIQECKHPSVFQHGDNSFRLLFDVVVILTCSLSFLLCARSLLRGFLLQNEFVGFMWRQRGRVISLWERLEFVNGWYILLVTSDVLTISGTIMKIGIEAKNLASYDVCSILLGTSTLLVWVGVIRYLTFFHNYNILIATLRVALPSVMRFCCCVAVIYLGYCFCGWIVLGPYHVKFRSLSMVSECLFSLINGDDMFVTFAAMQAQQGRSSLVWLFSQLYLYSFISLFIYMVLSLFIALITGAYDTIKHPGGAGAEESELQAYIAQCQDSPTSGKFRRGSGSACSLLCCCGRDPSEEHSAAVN
How it was run: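 Doxycycline-induced (0.5 μg/mL) HEK-293 Trex cells stably expressing surface-targeted mutant hTRPML1, loaded with 1 μM Fluo4-AM, then suspended in modified Ringer's with 10 mM calcium and added to compounds (20 μM to 6 nM final, half-log steps, triplicate). Fluorescence read at ex 480/em 540; percent activity versus plate controls, EC50 by non-linear regression.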

| EC50 (Human TRPML2) | EC50 (Human TRPML3) | EC50 (Human TRPML1) | Compound | concentration needed to effectively activate TRPMLs (TRPMLs) |
| --- | --- | --- | --- | --- |
|  |  |  | CC1CC(C)(C)N(C(=O)CN2C(=O)c3ccccc3C2=O)c2ccccc21 (stereo not shown) [ML-SA1, Mucolipin Synthetic Agonist I] | ~ 10 μM |
| > 2000 nM | 500 to 2000 nM | 100 to 500 nM | C[C@@H]1CN(c2ncnc3c2c(-c2ccncc2F)cn3-c2cc(C#N)ccn2)[C@@H](C)CN1C(=O)C(C)(C)O [Compound 146, 2-(5-(3-fluoropyridin-4-yl)-4-((2S,5R)-4-(2-hydroxy-2-methylpropanoyl)-2,5-dimethylpiperazin-1-yl)-7H-pyrrolo[2,3-d]pyrimidin-7-yl)isonicotinonitrile] |  |
| 500 to 2000 nM | < 100 nM | < 100 nM | C[C@@H]1CN(c2ncnc3c2c(-c2ccccc2F)cn3-c2cc(C#N)ccn2)[C@@H](C)CN1C(=O)C1(O)CCCC1 [Compound 121, 2-(5-(2-fluorophenyl)-4-((2S,5R)-4-(1-hydroxycyclopentane-1-carbonyl)-2,5-dimethylpiperazin-1-yl)-7H-pyrrolo[2,3-d]pyrimidin-7-yl)isonicotinonitrile] |  |
| 500 to 2000 nM | 100 to 500 nM | < 100 nM | C[C@@H]1CN(c2ncnc3c2c(-c2ccncc2)cn3-c2cc(C#N)ccn2)[C@@H](C)CN1C(=O)C1(O)CCCC1 [Compound 150, 2-(4-((2S,5R)-4-(1-hydroxycyclopentane-1-carbonyl)-2,5-dimethylpiperazin-1-yl)-5-(pyridin-4-yl)-7H-pyrrolo[2,3-d]pyrimidin-7-yl)isonicotinonitrile] |  |
